Experimental data from US20230083973A1, “SUBSTITUTED CYCLOPROPYL-2,2'-BIP[…], ANALOGUES THEREOF, AND METHODS USING SAME” (priority 2019, published 2023).

system: HBsAg; assay: HBsAg assay: inhibition of HBsAg in HepG2.2.15 cells (chemiluminescence immunoassay of supernatant); assay type: cell-based, hepatitis B virus; conditions: Hepatitis B virus, HepG2.2.15, 144 h, read-out: sAg EC50, HepG2.2.15 cells; HBsAg in supernatant at day 6 after exposure to compound; 0.5% DMSO
Method in brief: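 Secreted HBsAg quantified by CLIA in day-6 supernatants of HepG2.2.15 cultures given compound dilutions at 0.5% final DMSO, with one compound/medium replenishment after 2–3 days. Dose-response fits gave EC50 (50% inhibition); viability checked separately by CellTiter-Glo.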

First: OC1CC2(C1)CN(c1cc([C@@H]3C[C@H]3c3cnc(-c4ncccn4)nc3)cc(F)c1F)C2 (relative stereo) [Example 238, trans-2-(5-(2-([2,2′-Bipyrimidin]-5-yl)cyclopropyl)-2,3-difluorophenyl)-2-azaspiro[3.3]heptan-6-ol]
Second: Cc1cnn(-c2cc([C@@H]3C[C@H]3c3cnc(-c4ncccn4)nc3)cc(F)c2F)c1 (relative stereo) [Example 232, trans-5-(2-(3,4-Difluoro-5-(4-methyl-1H-pyrazol-1-yl)phenyl)cyclopropyl)-2,2′-bipyrimidine]
The EC50 of the first is 1.9-fold higher: 53 nM for the first, 28 nM for the second. The second is the more potent here.

First: COc1cc([C@@H]2C[C@H]2c2cnc(-c3ccccn3)nc2)cc(F)c1F (relative stereo) [Example 174, trans-5-(2-(3,4-Difluoro-5-methoxyphenyl)cyclopropyl)-2-(pyridin-2-yl)pyrimidine]
Second: COc1cc(F)ccc1[C@@H]1C[C@H]1c1cnc(-c2ncccn2)nc1 (relative stereo) [Example 7, trans-5-(2-(4-Fluoro-2-methoxyphenyl)cyclopropyl)-2,2′-bipyrimidine]
The EC50 of the first is 5.5-fold lower: 67 nM for the first, 370 nM for the second.

Going from `CN(c1cc([C@@H]2C[C@H]2c2cnc(-c3ncccn3)nc2)cc(F)c1F)C1COC1` (relative stereo) [Example 233, trans-N-(5-(2-([2,2′-Bipyrimidin]-5-yl)cyclopropyl)-2,3-difluorophenyl)-N-methyloxetan-3-amine] to `COc1cc([C@@H]2C[C@H]2c2cnc(-c3ncccn3)nc2C)ccc1F` (relative stereo) [Example 16, trans-5-(2-(4-Fluoro-3-methoxyphenyl)cyclopropyl)-4-methyl-2,2′-bipyrimidine], the EC50 rises from 84 nM to 750 nM (8.9-fold).

same assay, conditions: read-out: sAg EC50; HepG2.2.15 cells; HBsAg in supernatant at day 6 after exposure to compound; 0.5% DMSO

First: Fc1cc(C2CC2c2cnc(-c3ncccn3)nc2)cc(OCC2CC2)c1F (single isomer, unassigned) [Example 128, trans-5-(2-(3-(Cyclopropylmethoxy)-4,5-difluorophenyl)cyclopropyl)-2,2′-bipyrimidine]
Second: COc1cc(C2CC2c2cnc(-c3ncccn3)nc2)cc(C)c1F (single isomer, unassigned) [Example 150, trans-5-(2-(4-Fluoro-3-methoxy-5-methylphenyl)cyclopropyl)-2,2′-bipyrimidine]
The EC50 of the first is 2.4-fold lower: 420 nM for the first, 1000 nM for the second.

Compared with `COc1cc(C2CC2c2cnc(-c3ncccn3)nc2)cc(C)c1Cl` (single isomer, unassigned) [Example 58, trans-5-(2-(4-Chloro-3-methoxy-5-methylphenyl)cyclopropyl)-2,2′-bipyrimidine], `Fc1cc(Cl)cc(C2CC2c2cnc(-c3ncccn3)nc2)c1` (single isomer, unassigned) [Example 118, trans-5-(2-(3-Chloro-5-fluorophenyl)cyclopropyl)-2,2′-bipyrimidine] is 6.9-fold higher in EC50: 290 nM for the first, 2000 nM for the second.

First: CCCc1cc(F)c(OC)cc1C1CC1c1cnc(-c2ncccn2)nc1 (single isomer, unassigned) [Example 38, trans-5-(2-(4-Fluoro-5-methoxy-2-propylphenyl)cyclopropyl)-2,2′-bipyrimidine]
Second: COc1cc(F)ccc1C1CC1c1cnc(-c2ncccn2)nc1 (single isomer, unassigned) [Example 9, trans-5-(2-(4-Fluoro-2-methoxyphenyl)cyclopropyl)-2,2′-bipyrimidine]
The EC50 of the first is 1.8-fold higher: 150 nM for the first, 85 nM for the second. The second is the more potent here.

`COc1cc(C2CC2c2cnc(-c3ncccn3)nc2)cc(N2CCCC2)c1F` (single isomer, unassigned) [Example 100, trans-5-(2-(4-Fluoro-3-methoxy-5-(pyrrolidin-1-yl)phenyl)cyclopropyl)-2,2′-bipyrimidine] and `CO[C@H]1CCN(c2cc(C3CC3c3cnc(-c4ncccn4)nc3)ccc2F)C1` (single isomer, unassigned) [Example 68] are within 1.5-fold of each other in EC50: 61 nM for the first, 85 nM for the second.

`O=C1CCCN1c1cc(C2CC2c2cnc(-c3ncccn3)nc2)ccc1F` (single isomer, unassigned) [Example 197, trans-1-(5-(2-([2,2′-Bipyrimidin]-5-yl)cyclopropyl)-2-fluorophenyl)pyrrolidin-2-one] was tested, and the EC50 was 3000 nM.
